What was measured:
Aurora kinase A (AURKA) = target: T1, Aurora kinase A (AURKA) (Homo sapiens, UniProt O14965); test: Luciferase assay for AURKA in HeLa LgBit (AURKA-HiBit KI) cell line; format: cell-based; conditions: HeLa LgBit (AURKA-HiBit KI) cells, measured after 12 hours
T1 construct: endogenous in cells; host or cells: HeLa LgBit (AURKA-HiBit KI), CRISPR/Cas9 knock-in at the endogenous AURKA locus
T1 sequence (O14965 1-403): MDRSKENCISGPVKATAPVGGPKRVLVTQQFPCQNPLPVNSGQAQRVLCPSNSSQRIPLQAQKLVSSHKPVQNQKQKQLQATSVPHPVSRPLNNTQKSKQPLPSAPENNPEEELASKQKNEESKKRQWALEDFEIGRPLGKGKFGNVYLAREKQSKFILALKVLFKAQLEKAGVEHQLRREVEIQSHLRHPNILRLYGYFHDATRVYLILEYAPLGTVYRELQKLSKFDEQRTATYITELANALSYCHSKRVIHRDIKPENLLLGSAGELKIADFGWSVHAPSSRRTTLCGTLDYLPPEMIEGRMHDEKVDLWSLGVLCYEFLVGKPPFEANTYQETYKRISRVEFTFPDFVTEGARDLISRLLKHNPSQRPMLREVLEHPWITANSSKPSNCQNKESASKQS
How it was run: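 HeLa cells stably expressing LgBit, with HiBit knocked in at the C-terminus of endogenous AURKA; 3×10^4 cells seeded, 18 h, then Endurazine substrate 2 h. Compounds tested at 10 nM or 100 nM; luminescence read at 470-480 nm after 12 h as real-time read-out.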

NCI-H446 cell line = test: Cell viability assay for NCI-H446 cell line; format: cell-based; conditions: Homo sapiens, NCI-H446, 120 h; H446 cells, 5 days culture, EZ-Cytox; read-out: IC50 value (Level)
Description: The NCI-H446 (hereafter H446) cell lines were provided from American Type Culture Collection (ATCC). For cell culture, RPMI medium 1640 (Gibco, Cat. No. 22400-089; Lot. No. 2522717), FBS (Gibco, Cat. No. 16000-044; Lot. No. 2716756P), Penicillin/Streptomycin (PS) (Gibco, Cat. No. 15140-122; Lot. No. 2585636), 75T cell culture flask (SPL, Cat. No. 70075), 96 well cell culture plate (SPL, Cat. No. 30096), PBS pH 7.4 (Gibco, Cat. No. 10010-023; Lot. No. 2561466), TrypLE™ Express (Gibco, Cat. No. 12605-010; Lot. No. 2492811), counting chamber (hematocytometer) (Hirschmann, Cat. No. 8100204) and 0.4% Trypan Blue solution (DYNEBIO, Cat. No. CBT3710; Lot. No. 20231017) were used. Cells were cultured in RPMI 1640 medium supplemented with 10% FBS and 1% PS and incubated at 37° C., 5% CO2 condition in CO2 incubator (ThermoScientific, Cat. No. 4111).
For experiment, the present compounds were fully dissolved in DMSO (Sigma-Aldrich Cat. No. D2438, Lot. No. RNBL7287.
In each well of 96-well cell culture plate, […] cells of H446 cell lines were seeded in 150 μl of total medium volume. After 24 hours of cell seeding, the present compounds were treated.
The present compounds were each diluted 3-folds from the highest concentration of 1000 nM to the lowest concentration of 0.15 nM. The compound was added to each well to make the total volume of […] and the cells were cultured for 5 days in CO2 incubator (Thermo Fisher Science, Cat. No. 4111).
Thereafter, 20 μl of EZ-Cytox (DOGEN, Cat. NO. EZ-3000, Lot. No. DLS2308) was added to each well and the cells were cultured for 4 hours at the same condition in CO2 incubator. After culture, the absorbance of the sample was measured by setting the wavelength of a plate reader (BMG Labtech, CLARIOstar Plus) to […]. The samples were shaked for 2 minutes in the plate reader before measurement.

With `O=C1CCC(c2ccc(N3CCN(CCC4CCN(NC(=O)c5ccc(Nc6ncc(F)c(Nc7ccc(C(=O)Nc8ccccc8Cl)cc7)n6)cc5)CC4)CC3)cc2)C(=O)N1` (stereo not drawn) [Compound 7, N-(2-chlorophenyl)-4-((2-((4-((4-(2-(4-(4-(2,6-dioxopiperidin-3-yl)phenyl)piperazin-1-yl)ethyl)piperidin-1-yl)carbamoyl)phenyl)amino)-5-fluoropyrimidin-4-yl)amino)benzamide] the “luminescence value (Level)” value (Aurora kinase A (AURKA); 10 nM compound) was “A (A is <0.3)”, the “luminescence value (Level)” value (Aurora kinase A (AURKA); 100 nM compound) was “A (A is <0.2)” and the IC50 (NCI-H446 cell line) was less than 50 nM.
`O=C1CCC(c2ccc(N3CCC(CN4CCC(NC(=O)c5ccc(Nc6ncc(F)c(Nc7ccc(C(=O)Nc8ccccc8Cl)cc7)n6)cc5)CC4)CC3)cc2)C(=O)N1` (stereo not drawn) [Compound 50, N-(2-chlorophenyl)-4-[[2-[4-[[1-[[1-[4-(2,6-dioxo-3-piperidyl)phenyl]-4-piperidyl]methyl]-4-piperidyl]carbamoyl]anilino]-5-fluoro-pyrimidin-4-yl]amino]benzamide] was tested, and the “luminescence value (Level)” value (Aurora kinase A (AURKA); 10 nM compound) was “B (B is 0.3 to 0.5)”, the “luminescence value (Level)” value (Aurora kinase A (AURKA); 100 nM compound) was “A (A is <0.2)” and the IC50 (NCI-H446 cell line) was 50 to 100 nM.
For `O=C1CCC(c2ccc(N3CC(CN4CCC(NC(=O)c5ccc(Nc6ncc(F)c(Nc7ccc(C(=O)Nc8ccccc8Cl)cc7)n6)cc5)CC4)C3)cc2)C(=O)N1` (stereo not drawn) [Compound 8, N-(2-chlorophenyl)-4-((2-((4-((1-((1-(4-(2,6-dioxopiperidin-3-yl)phenyl)azetidin-3-yl)methyl)piperidin-4-yl)carbamoyl)phenyl)amino)-5-fluoropyrimidin-4-yl)amino)benzamide], the “luminescence value (Level)” value (Aurora kinase A (AURKA); 10 nM compound) was “B (B is 0.3 to 0.5)”, the “luminescence value (Level)” value (Aurora kinase A (AURKA); 100 nM compound) was “A (A is <0.2)” and the IC50 (NCI-H446 cell line) was less than 50 nM.
`CC(CN1CCN(c2ccc(C3CCC(=O)NC3=O)cc2)CC1)N1CCC(NC(=O)c2ccc(Nc3ncc(F)c(Nc4ccc(C(=O)Nc5ccccc5Cl)cc4)n3)cc2)CC1` (stereo not drawn) [Compound 67, N-(2-chlorophenyl)-4-((2-((4-((1-(1-(4-(4-(2,6-dioxopiperidin-3-yl)phenyl)piperazin-1-yl)propan-2-yl)piperidin-4-yl)carbamoyl)phenyl)amino)-5-fluoropyrimidin-4-yl)amino)benzamide] was tested, and the “luminescence value (Level)” value (Aurora kinase A (AURKA); 10 nM compound) was “B (B is 0.3 to 0.5)”, the “luminescence value (Level)” value (Aurora kinase A (AURKA); 100 nM compound) was “A (A is <0.2)” and the IC50 (NCI-H446 cell line) was 100 to 150 nM.
For `O=C1CCC(Nc2ccc(N3CC(N4CCc5cc(NC(=O)c6ccc(Nc7ncc(F)c(Nc8ccc(C(=O)Nc9ccccc9Cl)cc8)n7)cc6)ccc5C4)C3)cc2)C(=O)N1` (stereo not drawn) [Compound 36, N-(2-chlorophenyl)-4-((2-((4-((2-(1-(4-((2,6-dioxopiperidin-3-yl)amino)phenyl)azetidin-3-yl)-1,2,3,4-tetrahydroisoquinolin-6-yl)carbamoyl)phenyl)amino)-5-fluoropyrimidin-4-yl)amino)benzamide], the “luminescence value (Level)” value (Aurora kinase A (AURKA); 10 nM compound) was “B (B is 0.3 to 0.5)”, the “luminescence value (Level)” value (Aurora kinase A (AURKA); 100 nM compound) was “A (A is <0.2)” and the IC50 (NCI-H446 cell line) was 100 to 150 nM.
With `CN(Cc1ccc(Nc2ncc(F)c(Nc3ccc(C(=O)Nc4ccccc4Cl)cc3)n2)cc1)C1CCN(CCN2CCN(c3ccc(C4CCC(=O)NC4=O)cc3)CC2)CC1` (stereo not drawn) [Compound 100, N-(2-chlorophenyl)-4-((2-((4-(((1-(2-(4-(4-(2,6-dioxopiperidin-3-yl)phenyl)piperazin-1-yl)ethyl)piperidin-4-yl)(methyl)amino)methyl)phenyl)amino)-5-fluoropyrimidin-4-yl)amino)benzamide] the “luminescence value (Level)” value (Aurora kinase A (AURKA); 10 nM compound) was “C (C is 0.5 to 0.7)”, the “luminescence value (Level)” value (Aurora kinase A (AURKA); 100 nM compound) was “A (A is <0.2)” and the IC50 (NCI-H446 cell line) was greater than 200 nM.
For `O=C1CCC(c2ccc(N3CCC(CN4CCC(NC(=O)c5ccc(Nc6ncc(F)c(Nc7ccc(C(=O)Nc8ccccc8Cl)cc7)n6)cc5)CC4)C3)cc2)C(=O)N1` (stereo not drawn) [Compound 9, N-(2-chlorophenyl)-4-((2-((4-((1-((1-(4-(2,6-dioxopiperidin-3-yl)phenyl)pyrrolidin-3-yl)methyl)piperidin-4-yl)carbamoyl)phenyl)amino)-5-fluoropyrimidin-4-yl)amino)benzamide], the “luminescence value (Level)” value (Aurora kinase A (AURKA); 10 nM compound) was “B (B is 0.3 to 0.5)”, the “luminescence value (Level)” value (Aurora kinase A (AURKA); 100 nM compound) was “A (A is <0.2)” and the IC50 (NCI-H446 cell line) was less than 50 nM.
For `O=C1CCC(c2ccc(N3CCN(CCC4CCN(NC(=O)c5ccc(Nc6ncc(F)c(Nc7ccc(C(=O)Nc8ccccc8Cl)cc7)n6)cc5)CC4)CC3)c(F)c2)C(=O)N1` (stereo not drawn) [Compound 48, N-(2-chlorophenyl)-4-((2-((4-((4-(2-(4-(4-(2,6-dioxopiperidin-3-yl)-2-fluorophenyl)piperazin-1-yl)ethyl)piperidin-1-yl)carbamoyl)phenyl)amino)-5-fluoropyrimidin-4-yl)amino)benzamide], the “luminescence value (Level)” value (Aurora kinase A (AURKA); 10 nM compound) was “A (A is <0.3)”, the “luminescence value (Level)” value (Aurora kinase A (AURKA); 100 nM compound) was “A (A is <0.2)” and the IC50 (NCI-H446 cell line) was less than 50 nM.
For `CN(c1cccc(N2CCC(CN3CCN(C(=O)Cc4ccc(Nc5ncc(F)c(Nc6ccc(C(=O)Nc7ccccc7Cl)cc6)n5)cc4)CC3)CC2)c1)C1CCC(=O)NC1=O` (stereo not drawn) [Compound 45, N-(2-chlorophenyl)-4-((2-((4-(2-(4-((1-(3-((2,6-dioxopiperidin-3-yl)(methyl)amino)phenyl)piperidin-4-yl)methyl)piperazin-1-yl)-2-oxoethyl)phenyl)amino)-5-fluoropyrimidin-4-yl)amino)benzamide], the “luminescence value (Level)” value (Aurora kinase A (AURKA); 10 nM compound) was “C (C is 0.5 to 0.7)”, the “luminescence value (Level)” value (Aurora kinase A (AURKA); 100 nM compound) was “B (B is 0.2 to 0.4)” and the IC50 (NCI-H446 cell line) was 50 to 100 nM.
`C[C@H]1CN(CCC2CCN(NC(=O)c3ccc(Nc4ncc(F)c(Nc5ccc(C(=O)Nc6ccccc6Cl)cc5)n4)cc3)CC2)CCN1c1ccc(C2CCC(=O)NC2=O)cc1` (stereo partly drawn) [Compound 114, N-(2-chlorophenyl)-4-((2-((4-((4-(2-((3S)-4-(4-(2,6-dioxopiperidin-3-yl)phenyl)-3-methylpiperazin-1-yl)ethyl)piperidin-1-yl)carbamoyl)phenyl)amino)-5-fluoropyrimidin-4-yl)amino)benzamide] was tested, and the “luminescence value (Level)” value (Aurora kinase A (AURKA); 10 nM compound) was “A (A is <0.3)”, the “luminescence value (Level)” value (Aurora kinase A (AURKA); 100 nM compound) was “A (A is <0.2)” and the IC50 (NCI-H446 cell line) was less than 50 nM.
In the case of `C[C@H](CN1CCN(c2ccc(C3CCC(=O)NC3=O)cc2)CC1)C1CCN(NC(=O)c2ccc(Nc3ncc(F)c(Nc4ccc(C(=O)Nc5ccccc5Cl)cc4)n3)cc2)CC1` (stereo partly drawn) [Compound 63, N-(2-chlorophenyl)-4-((2-((4-((4-((2S)-1-(4-(4-(2,6-dioxopiperidin-3-yl)phenyl)piperazin-1-yl)propan-2-yl)piperidin-1-yl)carbamoyl)phenyl)amino)-5-fluoropyrimidin-4-yl)amino)benzamide], the “luminescence value (Level)” value (Aurora kinase A (AURKA); 10 nM compound) is reported as “A (A is <0.3)”, the “luminescence value (Level)” value (Aurora kinase A (AURKA); 100 nM compound) is reported as “A (A is <0.2)” and the IC50 (NCI-H446 cell line) is reported as less than 50 nM.
With `O=C1CCC(c2ccc(N3CCN(CCC4CCN(NC(=O)c5ccc(Nc6ncc(F)c(Nc7ccc(C(=O)Nc8ccccc8Cl)cc7)n6)cc5)CC4)CC3)cc2F)C(=O)N1` (stereo not drawn) [Compound 82, N-(2-chlorophenyl)-4-((2-((4-((4-(2-(4-(4-(2,6-dioxopiperidin-3-yl)-3-fluorophenyl)piperazin-1-yl)ethyl)piperidin-1-yl)carbamoyl)phenyl)amino)-5-fluoropyrimidin-4-yl)amino)benzamide] the “luminescence value (Level)” value (Aurora kinase A (AURKA); 10 nM compound) was “A (A is <0.3)”, the “luminescence value (Level)” value (Aurora kinase A (AURKA); 100 nM compound) was “A (A is <0.2)” and the IC50 (NCI-H446 cell line) was less than 50 nM.

From patent US20260226071A1, “2, 4-DIANILINOPYRIMIDINE-BASED AURORA-A KINASE SELECTIVE DEGRADATION INDUCING COMPOUNDS” (UPPTHERA, INC., priority 2023, published 2026)
